Assay results as given in patent publication US20090069319A1, “IMIDAZOPYRIDINE ANALOGS AND THEIR USE AS AGONISTS OF THE WNT-BETA-CATENIN CELLULAR MESSAGING SYSTEM” (Wyeth, priority 2007, published 2009).

Assay: Functional Dkk1-LRP5-TCF-Luciferase Assay in U2OS Cells (table columns: A=MAX FOLD Induction/DMSO CONTROL; B=fold induction @ 2.0 uM; C=fold induction @ 20.0 uM)
Type: cell-based, Human
Conditions: Homo sapiens, U2OS; for fold induction at 2 µM: 2.0 uM compound; for fold induction at 20 µM: 20.0 uM compound
Experimental: Biological Evaluation—Functional Dkk1-LRP5-TCF-Luciferase Assay in U2OS Cells
U2OS Human Bone derived cells (Osteosarcoma) are grown in McCoy's 5A Medium (Modified), with L-glutamine (GIBCO Cat No. 16600-082)+1% Pen-Strep+5% FBS) plated at 1×10^7 cells/T175 cm flask. The next day, the cells are co-transfected overnight with the following plasmids: (a) Test reporter (16×TCF-TK-FireFly-Luci), (b) Internal Control Reporter (TK-Renilla-Luci), (c) Wnt3a and (d) Dkk1. GIBCO's Lipofectamine 2000 and OptiMEM were used for the transfection. After a minimum of 4 hr of transfection at 37° C., the plasmid-transfected cells are trypsinized, counted, and suspended in freezing medium (95% FBS+5% DMSO). The reporter cells are frozen at 1×10^7/ml concentrations, aliquoted into 0.5 ml or 2.5 ml/tube and stored at −70° C.
The following day, test compounds are added under HTS setup by Plate Track into 384 well plates (white, TC treated, Falcon plate) such that the final concentration of the compounds in 20 μL/well cell will be 5 μg/ml (final concentration of DMSO=0.25% and final compound concentration=20 μM). Vials of frozen reporter cells are thawed by warming the vial in a 37° C. water bath for 60-120 seconds with some shaking until the cells formed a suspension. The thawed cells are transferred into a cold 50 ml (or larger) tube and mixed well by gentle pipetting. The appropriate amount of cold Phenol Red Free RPMI medium-1640 (GIBCO, Cat # 11835-030) with L-glutamine is added, both with ˜5% FBS (GIBCO-BRL, Cat. # 16000-044), so that 20 μl of the final cell suspension will contain ˜5,000 cells. The cell dilution is done such that the final concentration of FBS was ˜5%. Diluted cells (20 μl) are added into each well in a 384 well plate. The plate is incubated at 37° C. under 5% CO2 for ˜20 h. Bright-Glo substrate, 2.5 μl/well is added, and the Fire Fly Luciferase is measured using VLUX (60 second exposure) immediately after the substrate was added. Test compounds are dissolved in DMSO (100%) and added to specified wells. Raw luciferase signal data obtained as relative luminescence units (RLUs) for the test compounds are normalized to the signal of the mean of the sample reporter cell plate with DMSO.
Active compounds have TCF-luciferase ratios of 2.5 fold or greater over DMSO. All compounds show a signal increase of at least 10% compared to a signal with only DMSO added.
A=MAX FOLD Induction/DMSO CONTROL
B=TCF ACTIVITY/DMSO CONTROL Fold induction @ 2.0 uM C=TCF ACTIVITY/DMSO CONTROL Fold induction @ 20.0 uM

SMILES | fold induction at 2 µM | fold induction at 20 µM
CC(C)c1ccc(-c2nc3c(-c4ccc5ccccc5c4)ccnc3n2C2CCNCC2)cc1 [2-(4-isopropylphenyl)-7-(2-naphthyl)-3-piperidin-4-yl-3H-imidazo[4,5-b]pyridine] | 1.03 | –
c1ccc2cc(-c3ccnc4c3nc(-c3ccc5occc5c3)n4C3CCNCC3)ccc2c1 [2-(1-benzofuran-5-yl)-7-(2-naphthyl)-3-piperidin-4-yl-3H-imidazo[4,5-b]pyridine] | 0.9 | 1.02
c1ccc(-c2nc3cc(-c4ccc5ccccc5c4)cnc3n2C2CCNCC2)cc1 [6-(2-naphthyl)-2-phenyl-3-piperidin-4-yl-3H-imidazo[4,5-b]pyridine] | 1.6 | –
O=c1[nH]cc(-c2nc3c(-c4ccc5ccccc5c4)ccnc3n2C2CCNCC2)c(=O)[nH]1 [5-[7-(2-naphthyl)-3-piperidin-4-yl-3H-imidazo[4,5-b]pyridin-2-yl]pyrimidine-2,4(1H,3H)-dione] | 1.94 | 1.91
COc1ccc2ccccc2c1-c1nc2c(-c3ccc4ccccc4c3)ccnc2n1C1CCNCC1 [2-(2-methoxy-1-naphthyl)-7-(2-naphthyl)-3-piperidin-4-yl-3H-imidazo[4,5-b]pyridine] | 1.17 | –
Cc1nc2c(-c3ccc4ccccc4c3)ccnc2n1CC1CCNCC1 [2-methyl-7-(2-naphthyl)-3-(piperidin-4-ylmethyl)-3H-imidazo[4,5-b]pyridine] | 1.12 | 0.08
Cc1ccc(-c2nc3c(-c4ccc5ccccc5c4)ccnc3n2C2CCNCC2)c(C)c1 [2-(2,4-dimethylphenyl)-7-(2-naphthyl)-3-piperidin-4-yl-3H-imidazo[4,5-b]pyridine] | 1.3 | –
Clc1cccc(-c2nc3cc(-c4ccc5ccccc5c4)cnc3n2C2CCNCC2)c1 [2-(3-chlorophenyl)-6-(2-naphthyl)-3-piperidin-4-yl-3H-imidazo[4,5-b]pyridine] | 0.98 | –
c1ccc(CN2CCC(n3cnc4c(-c5ccc6ccccc6c5)ccnc43)CC2)cc1 [3-(1-benzylpiperidin-4-yl)-7-(2-naphthyl)-3H-imidazo[4,5-b]pyridine] | 0.84 | 0.08
Cn1c(=O)n(C2CCN(C(=O)N3CCOCC3)CC2)c2nccc(-c3ccc4ccccc4c3)c21 [1-methyl-3-[1-(morpholin-4-ylcarbonyl)piperidin-4-yl]-7-(2-naphthyl)-1,3-dihydro-2H-imidazo[4,5-b]pyridin-2-one] | 1.29 | 0.21
CC(=O)N1CCC(n2c(=O)n(C)c3c(-c4ccc5ccccc5c4)ccnc32)CC1 [3-(1-acetylpiperidin-4-yl)-1-methyl-7-(2-naphthyl)-1,3-dihydro-2H-imidazo[4,5-b]pyridin-2-one] | 1.09 | 0.51
c1ccc2cc(-c3cnc4c(c3)nc(C3CCCCC3)n4C3CCNCC3)ccc2c1 [2-cyclohexyl-6-(2-naphthyl)-3-piperidin-4-yl-3H-imidazo[4,5-b]pyridine] | 1.24 | 0.01
Clc1nc2ccccc2cc1-c1nc2c(-c3ccc4ccccc4c3)ccnc2n1C1CCNCC1 [2-chloro-3-[7-(2-naphthyl)-3-piperidin-4-yl-3H-imidazo[4,5-b]pyridin-2-yl]quinoline] | 1.6 | –
N#Cc1ccc(-c2nc3c(-c4ccc5ccccc5c4)ccnc3n2C2CCNCC2)cc1 [4-[7-(2-naphthyl)-3-piperidin-4-yl-3H-imidazo[4,5-b]pyridin-2-yl]benzonitrile] | 1.58 | –
Cc1nc2c(-c3ccc4ccccc4c3)ccnc2n1C1CNC1 [3-azetidin-3-yl-2-methyl-7-(2-naphthyl)-3H-imidazo[4,5-b]pyridine] | 1.16 | 0.76
Cc1ccc(-c2nc3c(-c4ccc5ccccc5c4)ccnc3n2C2CCNCC2)o1 [2-(5-methyl-2-furyl)-7-(2-naphthyl)-3-piperidin-4-yl-3H-imidazo[4,5-b]pyridine] | 1.17 | –
COc1cccc(-c2nc3c(-c4ccc5ccccc5c4)ccnc3n2C2CCNCC2)c1 [2-(3-methoxyphenyl)-7-(2-naphthyl)-3-piperidin-4-yl-3H-imidazo[4,5-b]pyridine] | 1.25 | –

SMILES | fold induction at 2 µM | fold induction at 20 µM
CCCc1nc2c(-c3ccc4ccccc4c3)ccnc2n1C1CCNCC1 [7-(2-naphthyl)-3-piperidin-4-yl-2-propyl-3H-imidazo[4,5-b]pyridine] | 1.93 | –
c1ccc2cc(-c3cnc4c(c3)nc(-c3ccc5ccccc5c3)n4C3CCNCC3)ccc2c1 [2,6-di-2-naphthyl-3-piperidin-4-yl-3H-imidazo[4,5-b]pyridine] | 1.06 | –
c1ccc2cc(-c3cnc4c(c3)nc(-c3cccc5ccccc35)n4C3CCNCC3)ccc2c1 [2-(1-naphthyl)-6-(2-naphthyl)-3-piperidin-4-yl-3H-imidazo[4,5-b]pyridine] | 1.11 | –
Oc1ccccc1-c1nc2c(-c3ccc4ccccc4c3)ccnc2n1C1CCNCC1 [2-[7-(2-naphthyl)-3-piperidin-4-yl-3H-imidazo[4,5-b]pyridin-2-yl]phenol] | 1.35 | 0.01
Cc1nc2c(-c3ccc4ccccc4c3)ccnc2n1[C@H]1CCNC1 [2-methyl-7-(2-naphthyl)-3-[(3S)-pyrrolidin-3-yl]-3H-imidazo[4,5-b]pyridine] | 1.57 | 0.4
c1coc(-c2nc3cc(-c4ccc5ccccc5c4)cnc3n2C2CCNCC2)c1 [2-(2-furyl)-6-(2-naphthyl)-3-piperidin-4-yl-3H-imidazo[4,5-b]pyridine] | 1.27 | 0.01
O=[N+]([O-])c1cccc(-c2nc3c(-c4ccc5ccccc5c4)ccnc3n2C2CCNCC2)c1 [7-(2-naphthyl)-2-(3-nitrophenyl)-3-piperidin-4-yl-3H-imidazo[4,5-b]pyridine] | 1.29 | –
O=C(N1CCC(n2cnc3c(-c4ccc5ccccc5c4)ccnc32)CC1)C(F)(F)F [7-(2-naphthyl)-3-[1-(trifluoroacetyl)piperidin-4-yl]-3H-imidazo[4,5-b]pyridine] | 1.58 | 0.39
O=[N+]([O-])c1ccccc1-c1nc2cc(-c3ccc4ccccc4c3)cnc2n1C1CCNCC1 [6-(2-naphthyl)-2-(2-nitrophenyl)-3-piperidin-4-yl-3H-imidazo[4,5-b]pyridine] | 1.13 | –
c1ccc(-c2nc3c(-c4ccc5ccccc5c4)ccnc3n2C2CCNCC2)nc1 [7-(2-naphthyl)-3-piperidin-4-yl-2-pyridin-2-yl-3H-imidazo[4,5-b]pyridine] | 1.12 | 0.02
COc1cccc(-c2nc3cc(-c4ccc5ccccc5c4)cnc3n2C2CCNCC2)c1 [2-(3-methoxyphenyl)-6-(2-naphthyl)-3-piperidin-4-yl-3H-imidazo[4,5-b]pyridine] | 0.97 | –
Cc1ccc(CCn2c(C)nc3c(-c4ccc5ccccc5c4)ccnc32)cc1 [2-methyl-3-[2-(4-methylphenyl)ethyl]-7-(2-naphthyl)-3H-imidazo[4,5-b]pyridine] | 0.82 | 1
c1ccc2cc(-c3cnc4c(c3)nc(-c3cc5ccccc5o3)n4C3CCNCC3)ccc2c1 [2-(1-benzofuran-2-yl)-6-(2-naphthyl)-3-piperidin-4-yl-3H-imidazo[4,5-b]pyridine] | 1 | –
FC(F)(F)c1cccc(-c2nc3c(-c4ccc5ccccc5c4)ccnc3n2C2CCNCC2)c1Cl [2-[2-chloro-3-(trifluoromethyl)phenyl]-7-(2-naphthyl)-3-piperidin-4-yl-3H-imidazo[4,5-b]pyridine] | 1.21 | –
c1ccc2cc(-c3cnc4c(c3)ncn4C3CCNCC3)ccc2c1 [6-(2-naphthyl)-3-piperidin-4-yl-3H-imidazo[4,5-b]pyridine] | 1.53 | –
CCc1nc2c(-c3ccc4ccccc4c3)ccnc2n1C1CCNCC1 [2-ethyl-7-(2-naphthyl)-3-piperidin-4-yl-3H-imidazo[4,5-b]pyridine] | 1.39 | –
CCCCc1nc2cc(-c3ccc4ccccc4c3)cnc2n1C1CCNCC1 [2-butyl-6-(2-naphthyl)-3-piperidin-4-yl-3H-imidazo[4,5-b]pyridine] | 1.21 | –
